Measurements: patent US20230310573A1, “Stabilized Vaccine Compositions” (priority 2020, published 2023)
Where two headings read alike, the source gives them in different places.

Experiments:
Format in all cases: physicochemical
[1] = target: T1, RSV pre-fusion F protein of SEQ ID NO: 10 (Human respiratory syncytial virus A, UniProt P03420, D486N/DEL108-136/I379V/M447V/N67I/P102A/S215P); settings: phosphate buffer (Formulation 1), preF 0.3 mg/ml, 1:3 trimer:compound, RT to −70° C. in 24 hours
T1 construct: made in house
Method: The RSV pre-fusion F protein of SEQ ID NO: 10 was diluted to 0.3 mg/ml in phosphate buffer (Formulation 1) and 0.75 ml was filled in glass injection vials with rubber stopper and sealed with aluminum caps. Additionally, protein was diluted in the formulation buffers with inhibitor in a 1:3 trimer:compound ratio. One inhibitor binds one trimer so with a 1:3 ratio there is an excess of inhibitor. […] In 24 hours, samples were cooled down from RT to −70° C. Samples were thawed to RT and analyzed by analytical Size Exclusion Chromatography (SEC) to measure loss of RSV F trimer.
0.75 ml of each formulation was filled in glass injection vials with rubber stopper and sealed with aluminum caps. Additionally, protein was diluted in the formulation buffers and inhibitor was added in a 1:1, 1:3, 1:9, 1:27 and 1:50 trimer: compound ratio. Final compound concentrations were 1.7×10^−6 M, 5.2×10^−6 M, 1.6×10^−5M, 4.6×10^−5, and 8.6×10^−5 M, respectively. Vials were slowly frozen to −70° C. in 24 hours. Samples were subsequently thawed to RT and analyzed by analytical Size Exclusion Chromatography (SEC) to measure loss of RSV F trimer compared the sample that was kept at 4° C.

[2] = target: T2, RSV pre-fusion F (preF) protein of SEQ ID NO: 10 (Human respiratory syncytial virus A, UniProt P03420, D486N/DEL108-136/I379V/M447V/N67I/P102A/S215P)
T2 construct: made in house

[3] = target: T2, RSV pre-fusion F (preF) protein of SEQ ID NO: 10; assay: Dialysis and slow freezing, trimer by analytical SEC
Method: (§1) Vials were frozen to −70° C. in 24 hours under controlled conditions. Samples were subsequently thawed to RT and analyzed by analytical Size Exclusion Chromatography (SEC) to measure loss of RSV F trimer compared the sample that was kept at 4° C. In addition, the dialyzed materials with and without stabilizing compound III were evaluated in DSF to measure the melting temperature. For experimental details see example 2.

[4] = target: T2, RSV pre-fusion F (preF) protein of SEQ ID NO: 10; assay: UF/DF buffer exchange and slow freezing, aggregation by analytical SEC; settings: for aggregation after buffer exchange and slow freezing: 1:50
Method: Buffer exchange of samples with and without stabilizing compound III was performed by ultrafiltration/diafiltration (UF/DF), using a Cogent μScale TFF system (Merck). […] Stabilizing compound III was preincubated with the sample and in one case also added to the buffer used for the UF/DF (see FIG. 12 labeled 1:3 & In Buffer). Runs were performed using Pelicon XL Biomax 50 cm2 filter cassettes. For each run, the system was flushed with MilliQ water at a crossflow of 30-50 mL/min, then the system was cleaned with NaOH 0.1M (recirculated for at least 5 min.) After this, the system was flushed again with MilliQ water until a pH of 7 was reached, followed by a 5 min. flush of the system with the desired buffer. Subsequently, the protein (50 mL) was added to the system for diafiltration against 7 diavolumes (350 mL) of the desired buffer.
as §1, with “Each formulation (pre and post UF/DF samples) was diluted to 0.3 mg/ml. 0.75 ml of each formulation was filled in glass injection vials with rubber stopper and sealed with aluminum caps. Vials” for “Vials”, “different formulations” for “dialyzed materials”
Stabilizing compound III was added in a 1:50 trimer:compound ratio before the UD/DF and incubated for 24 hours at […] The excess of unbound stabilizing compound III is removed during the UF/DF process.
Each formulation (pre and post dialysis samples) was diluted to 0.3 mg/ml. 0.75 ml of each formulation was filled in glass injection vials with rubber stopper and sealed with aluminum caps. Vials were slowly frozen to −70° C. in 24 hours. Samples were subsequently thawed to RT and analyzed by analytical Size Exclusion Chromatography (SEC) to measure loss of RSV F trimer compared the sample that was kept at 4° C. In addition, the different formulations with and without compound III were evaluated in DSF to measure the melting temperature. For experimental details see example 2.

[5] = target: T2, RSV pre-fusion F (preF) protein of SEQ ID NO: 10; assay: Quantification of stabilizing compound III after UF/DF by LC-MS/MS; settings: high excess (1:50) added before UF/DF
Method: FIG. 13. Buffer exchange using different buffers & and excess stabilizing compound III. Samples that contained stabilizing compound III, were pre-incubated for 24 h at room temperature (RT). […] Then, samples were assessed for (a) aggregation level by analytical SEC, (b) melting temperature by DSF (Day 0). Individual replicates (n=5 for slow freeze; n=3 for DSF), mean and error bars indicating the standard deviation are depicted. (c) Quantification of stabilizing compound III after UF/DF. Samples that were previously UF/DF-ed and snap frozen were used to quantify the amount of FI left after buffer exchange. Quantification was performed using a LC-MS/MS. Plotted in the left Y axis the concentration from each sample. Right Y axis corresponds to the equivalence of stabilizing compound III molecules per trimer.
Additionally, the concentration of stabilizing compound III present in the samples after UF/DF was determined by LC-MS/MS.

For `CS(=O)(=O)CCCn1c(Cn2c(=O)n(C3CC3)c3ccncc32)nc2cc(Br)ccc21` [Compound III, 3-[[5-bromo-1-(3-methylsulfonylpropyl)benzimidazol-2-yl]methyl]-1-cyclopropyl-imidazo[4,5-c]pyridin-2-one], the “trimer signal lost after slow freeze/thaw (analytical SEC)” value [1] was 2.0+/−2.0%, the “trimer content after heat stress (SEC)” value ([2]; 6 weeks at 37° C., AP1, formulation 1, formulation 5a, trimer:compound 1:3 and 1:9) was “trimer content was not changed compared to the control” and the “aggregation after heat stress (SEC)” value ([2]; 6 weeks at 47° C., AP1, formulation 1, formulation 5a, trimer:compound 1:3 and 1:9) was “aggregation was higher for the samples without compound compared to the samples with compound”. The “formation of protein aggregates in liquid phase (SEC trimer content vs 4° C. control)” value ([2]; 37° C., up to 26 weeks, different buffers, 1:3 or 1:9) was “protects from the formation of protein aggregates”, the “protection from aggregation over time, by ratio” value ([2]; 37° C., up to 26 weeks, higher ratios (1:9)) was “best protection from aggregation over time” and the “protection from aggregation at 37° C.” value ([2]; AP1, 9, 16 or 26 weeks) was “did not show protection from aggregation”. The “trimer content at 37° C.” value ([2]; Formulation 1, 9, 16 or 26 weeks) was “improved the trimer content”, the “trimer content at 37° C.” value ([2]; Formulation 5a and FB12, 9, 16 or 26 weeks) was “always improved the trimer content” and the “trimer after dialysis and slow freezing” value ([3]; 1:3 and 1:30 trimer:compound) was “higher than 90%”. For the same compound, the “aggregation after slow freezing” value ([3]; pre- and post-dialysis samples, 1:3 and 1:30) was “protected from aggregation”, the “aggregation after buffer exchange and subsequent slow freezing” value ([4]; 1:50 trimer:compound before UF/DF, irrespective of the buffer) was “protected from aggregation” and the “aggregation after buffer exchange and slow freezing” value ([4]; AP1 buffer) was “did not provide enough protections against aggregation”. The “aggregation after buffer exchange and slow freezing” value ([4]; Formulation 1 without PS20) was “provided protection against aggregation”, the “aggregation after UF/DF and slow freezing” value ([4]; Formulation buffer 6, irrespective of compound concentration) was “protected from aggregation” and the “compound bound after UF/DF (LC-MS/MS)” value [5] was ~2.6 molecules of stabilizing compound III per trimer.
